Patent EP2671872A1, “Fluorinated pyridylacetylene derivatives as tracers” (Eidgenössische Technische Hochschule Zürich (ETH), priority 2012, dated 2013)
Read-outs that look alike come from different tables or passages of the source.

Experiments:
[1] = defluorination in vivo in rats
[2] = defluorination by human liver microsomes; type: in vitro ADME
[3] = defluorination by rat liver microsomes; type: in vitro ADME
[4] = defluorination by human S9 fraction of liver homogenate; type: in vitro ADME
mGluR5 [5] = biological target: T1, mGluR5 (Rattus norvegicus, UniProt P31424); test: PET scan of rat brain, kinetic behavior (ratio of specifically bound to free ligand); type: in vivo, Wistar rat; set-up: from tissue; host or cells: brain of living male Wistar rat (in vivo PET); details: tail vein injection
Protocol: A male Wistar rat (423 g) was injected 23.1 MBq [^18F]PSS232 into a tail vein and PET was acquired from 0 to 90 min post injection. […] Only brain is shown. SUV denotes standardized uptake value.
PET scans analogous to those of Example 3 were recorded after administration of [^18F]PSS232 (Fig. 7, red curves, circles and diamonds), [^11C]ABP688 (Fig. 7, black curves, squares and triangles) and [^18F]FDEGPECO (Fig. 7, blue curves, crosses and crossed bars).
Fig. 9 illustrates the favorable kinetic behavior of PSS232. The ratio of specifically bound PSS232 in caudate putamen (striatum) to free ligand PSS232 (radioactivity in cerebellum is considered to originate from free ligand) becomes constant at about 40 min after injection, thus allowing the estimation of the binding potential (BP). This is an advantage over [^11C]ABP688 where the equilibrium is not reached within 60 min and the short physical half-life of ^11C (20 min) limits the scan duration.

rat mGluR5 = biological target: T2, rat mGluR5 (Rattus norvegicus, UniProt P31424); test: displacement assay with rat brain membranes and [^3H]ABP688; type: binding; details: radioligand of the displacement assay, used at 1.6 nM, rat brain membranes
T2 construct: displacement assay with rat brain membranes and 1.6 nM [^3H]ABP688; from tissue; host or cells: rat brain membranes

[6] = rodents; background; cited from earlier work
[7] = monkeys; background; cited from earlier work
[8] = humans; background, relative to rodents and monkeys; cited from earlier work
mGluR5 [9] = biological target: T1, mGluR5; details: background, literature; cited from earlier work
[10] = rats; background, literature; cited from earlier work
mGluR5 [11] = biological target: T1, mGluR5; test: ex vivo brain distribution with MTEP blockade (gamma counter); type: in vivo, Rats; set-up: from tissue; host or cells: rat brain regions after in vivo injection; details: 45 min after injection
Protocol: Rats were pre-injected (tail vein) with 10 mg/kg MTEP (a specific mGluR5 antagonist) before [^18F]PSS232 injection (= blockade, see green, right bars in Fig. 10) or they were pre-injected with vehicle (= baseline, see blue, left, bars in Fig. 10).

mGluR5 [12] = biological target: T1, mGluR5; test: in vitro autoradiography of rat brain slices; type: binding; set-up: from tissue; host or cells: brain of living animal (in vivo PET, tail vein injection); details: about 1 nM tracer, 20 µm slices; compared with 100 nM ABP688 (mGluR5 ligand) or JNJ16259685 (mGluR1 ligand)
Protocol: In Fig. 4 two rat brain slices (20 µm) each were incubated with about 1 nM [^18F]PSS232 in the absence of any unlabeled compound (top) or with 100 nM of the specific mGluR5 ligand ABP688 (middle) or of mGluR1 ligand JNJ16259685 (bottom). […] It should be noted that mGluR1 is the receptor with most similar amino acid sequence to mGluR5.

mGluR5 [13] = biological target: T1, mGluR5; test: ex vivo brain distribution after MMPEP pre-injection at various doses (receptor occupancy); details: estimated from fit of MMPEP dose curve; 45 min after injection

T1 sequence (P31424 21-1203): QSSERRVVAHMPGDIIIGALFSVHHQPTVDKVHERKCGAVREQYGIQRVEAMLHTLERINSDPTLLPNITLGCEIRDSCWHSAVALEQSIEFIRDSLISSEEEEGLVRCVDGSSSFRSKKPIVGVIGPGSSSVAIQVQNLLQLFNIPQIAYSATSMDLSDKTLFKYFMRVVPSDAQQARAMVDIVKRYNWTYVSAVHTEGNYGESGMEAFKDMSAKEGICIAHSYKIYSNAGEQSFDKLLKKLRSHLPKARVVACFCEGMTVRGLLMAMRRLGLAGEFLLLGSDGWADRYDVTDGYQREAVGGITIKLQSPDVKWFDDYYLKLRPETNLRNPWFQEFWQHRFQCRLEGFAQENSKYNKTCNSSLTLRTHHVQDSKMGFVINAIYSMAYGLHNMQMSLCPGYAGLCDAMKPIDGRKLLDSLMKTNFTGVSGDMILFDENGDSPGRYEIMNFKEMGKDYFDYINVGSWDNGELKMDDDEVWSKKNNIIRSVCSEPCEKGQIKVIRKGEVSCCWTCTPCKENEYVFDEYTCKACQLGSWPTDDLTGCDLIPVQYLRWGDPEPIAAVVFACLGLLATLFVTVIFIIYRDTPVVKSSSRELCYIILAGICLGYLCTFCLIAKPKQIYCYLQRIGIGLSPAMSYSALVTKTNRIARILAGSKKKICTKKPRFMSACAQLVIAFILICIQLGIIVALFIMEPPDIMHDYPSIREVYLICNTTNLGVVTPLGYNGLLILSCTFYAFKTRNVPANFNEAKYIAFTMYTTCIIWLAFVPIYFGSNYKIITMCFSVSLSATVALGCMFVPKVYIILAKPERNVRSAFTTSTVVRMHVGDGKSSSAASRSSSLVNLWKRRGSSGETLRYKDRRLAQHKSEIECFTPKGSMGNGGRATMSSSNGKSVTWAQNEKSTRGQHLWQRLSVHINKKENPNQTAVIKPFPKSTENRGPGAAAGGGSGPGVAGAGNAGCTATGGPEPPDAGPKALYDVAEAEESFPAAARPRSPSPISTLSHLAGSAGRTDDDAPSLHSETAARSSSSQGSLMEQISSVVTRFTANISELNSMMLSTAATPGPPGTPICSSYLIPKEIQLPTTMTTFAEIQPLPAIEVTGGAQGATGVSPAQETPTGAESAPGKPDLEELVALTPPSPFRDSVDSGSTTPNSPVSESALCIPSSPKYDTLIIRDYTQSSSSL
T2 sequence (P31424 21-1203): as above

In the case of `FCCOCCCO/N=C1/C=C(C#Cc2ccccn2)CCC1` [PSS232, (E)-3-(pyridin-2-ylethynyl)-cyclohex-2-enone O-(3-(2-fluoroethoxy)propyl) oxime], the defluorination in vivo [1] is reported as “does not show significant defluorination”, the defluorination [2] is reported as “not significantly defluorinated” and the defluorination [3] is reported as “not significantly defluorinated”. For the same compound, the defluorination [4] was “not significantly defluorinated” and the “time after injection at which ratio of specifically bound (caudate putamen/striatum) to free ligand (cerebellum) becomes constant (equilibrium)” value (mGluR5 [5]) was “about 40 min”.

`CON=C1C=C(C#Cc2cccc(C)n2)CCC1` [[^3H]ABP688] gave a Kd (rat mGluR5) of 1.7 nM.

With `Cc1cccc(C#CC2=C/C(=N/O[11CH3])CCC2)n1` [[^11C]ABP688, (E)-3-((6-methylpyridin-2-yl)ethynyl)cyclohex-e-enone-O-^11C-methyl oxime] the “time after injection at which ratio of specifically bound (caudate putamen/striatum) to free ligand (cerebellum) becomes constant (equilibrium)” value (mGluR5 [5]) was > 60 min.

For `N#Cc1cc(F)cc(C#Cc2csc(C[18F])n2)c1` [[^18F]-SP203], the defluorination [6] is given as “significant defluorination”, the defluorination [7] is given as “significant defluorination” and the defluorination [8] is given as “to a lesser extent”.

In the case of `[18F]CCOCCO/N=C1/C=C(C#Cc2ccccn2)CCC1` [[^18F]FDEGPECO, (E)-3-(Pyridin-2-ylethynyl)-cyclohex-2-enone-O-2-(2-^18F-fluoroethoxy)ethyl oxime], the “mean residence time at the target site” value (mGluR5 [9]) is given as “relatively short”.

For `[18F]CCCOCCO/N=C1/C=C(C#Cc2ccccn2)CCC1` [[^18F]PSS223, (E)-3-(pyridin-2-ylethynyl)cyclohex-2-enone O-(2-(3-^18F-fluoropropoxy)ethyl) oxime], the defluorination in vivo [10] is given as “rapid defluorination”.

For `FCCOCCCO/N=C1/C=C(C#Cc2ccccn2)CCC1` [[^18F]PSS232, (E)-3-(pyridin-2-ylethynyl)-cyclohex-2-enone O-(3-(2-fluoroethoxy)propyl) oxime], the “average specific binding in striatum” value (mGluR5 [11]; baseline (vehicle) vs blockade with 10 mg/kg MTEP) was 86.6%, the “accumulation in mGluR5-rich domains of rat brain slices” value (mGluR5 [12]) was “high, mGluR5-selective accumulation” and the “maximal specific binding in striatum” value (mGluR5 [13]) was 78.5%.

With MTEP the “radioactivity of brain regions after MTEP pre-injection” value (mGluR5 [11]; 10 mg/kg MTEP tail vein before [^18F]PSS232) was “all brain regions have similar radioactivity as in cerebellum”.
